In the supplement of paper PMC10307832:

Assays:
Assay in all cases: relative viability (nuclei count vs DMSO), 5 days (fraction); higher = more cells survive
[1] = system: NCI-H1792
In short: (§1)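 After 5 days of treatment, lung cancer cells in 1536-well plates were fixed and stained in a single step (final 0.05% Triton X-100, 1% formaldehyde, 1 ug/ml Hoechst) and their nuclei counted on 4× images. Treatment had been applied by pin tool the day after seeding as one drug alone or as a fixed anchor-drug dose with five library-drug doses (not always all listed) in √10 steps. Relative viability is the nuclei count of treated wells divided by that of vehicle wells, and values are medians of duplicate plates.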

[2] = system: NCI-H2347
In short: as §1

[3] = system: HCC-15
In short: as §1

[4] = system: NCI-H358
In short: as §1

[5] = system: NCI-H1734
In short: as §1

[6] = system: NCI-H647
In short: as §1

[7] = system: SW 1573
In short: as §1

[8] = system: NCI-H2228
In short: as §1

[9] = system: LXF-289
In short: as §1

[10] = system: PC-3 [JPC-3]
In short: as §1

[11] = system: HCC-78
In short: as §1

[12] = system: NCI-H2126
In short: as §1

[13] = system: NCI-H1915
In short: as §1

[14] = system: NCI-H1755
In short: as §1

[15] = system: SK-LU-1
In short: as §1

[16] = system: LC-2-ad
In short: as §1

[17] = system: RERF-LC-KJ
In short: as §1

[18] = system: A-427
In short: as §1

[19] = system: HOP-62
In short: as §1

[20] = system: NCI-H1975
In short: as §1

Nc1ccn([C@@H]2O[C@H](CO)[C@@H](O)[C@@H]2O)c(=O)n1 [Cytarabine] + C[C@]1(O)C[C@@H](c2nc(-c3ccc4ccc(-c5ccccc5)nc4c3)c3c(N)nccn32)C1 [Linsitinib] (partner 1 µM)
relative viability ([1]; first compound 0.005 µM): 0.46
relative viability ([1]; first compound 0.01581 µM): 0.492
relative viability ([1]; first compound 0.05 µM): 0.34
relative viability ([1]; first compound 0.1581 µM): 0.348
relative viability ([1]; first compound 0.5 µM): 0.283
relative viability ([2]; first compound 0.005 µM): 1.02
relative viability ([2]; first compound 0.01581 µM): 0.932
relative viability ([2]; first compound 0.05 µM): 0.822
relative viability ([2]; first compound 0.1581 µM): 0.32
relative viability ([2]; first compound 0.5 µM): 0.649
relative viability ([3]; first compound 0.005 µM): 0.902
relative viability ([3]; first compound 0.01581 µM): 0.912
relative viability ([3]; first compound 0.05 µM): 0.903
relative viability ([3]; first compound 0.1581 µM): 0.72
relative viability ([3]; first compound 0.5 µM): 0.585
relative viability ([4]; first compound 0.005 µM): 0.571
relative viability ([4]; first compound 0.01581 µM): 0.628
relative viability ([4]; first compound 0.05 µM): 0.494
relative viability ([4]; first compound 0.1581 µM): 0.248
relative viability ([4]; first compound 0.5 µM): 0.16
relative viability ([5]; first compound 0.005 µM): 0.512
relative viability ([5]; first compound 0.01581 µM): 0.328
relative viability ([5]; first compound 0.05 µM): 0.257
relative viability ([5]; first compound 0.1581 µM): 0.141
relative viability ([5]; first compound 0.5 µM): 0.128
relative viability ([6]; first compound 0.005 µM): 0.729
relative viability ([6]; first compound 0.01581 µM): 0.55
relative viability ([6]; first compound 0.05 µM): 0.394
relative viability ([6]; first compound 0.1581 µM): 0.148
relative viability ([6]; first compound 0.5 µM): 0.061
relative viability ([7]; first compound 0.005 µM): 0.831
relative viability ([7]; first compound 0.01581 µM): 0.664
relative viability ([7]; first compound 0.05 µM): 0.621
relative viability ([7]; first compound 0.1581 µM): 0.369
relative viability ([7]; first compound 0.5 µM): 0.149
relative viability ([8]; first compound 0.005 µM): 0.675
relative viability ([8]; first compound 0.01581 µM): 0.546
relative viability ([8]; first compound 0.05 µM): 0.492
relative viability ([8]; first compound 0.1581 µM): 0.152
relative viability ([8]; first compound 0.5 µM): 0.0885
relative viability ([9]; first compound 0.005 µM): 0.859
relative viability ([9]; first compound 0.01581 µM): 0.945
relative viability ([9]; first compound 0.05 µM): 0.786
relative viability ([9]; first compound 0.1581 µM): 0.493
relative viability ([9]; first compound 0.5 µM): 0.279
relative viability ([10]; first compound 0.005 µM): 0.889
relative viability ([10]; first compound 0.01581 µM): 0.903
relative viability ([10]; first compound 0.05 µM): 0.866
relative viability ([10]; first compound 0.1581 µM): 0.691
relative viability ([10]; first compound 0.5 µM): 0.65
relative viability ([11]; first compound 0.005 µM): 0.538
relative viability ([11]; first compound 0.01581 µM): 0.457
relative viability ([11]; first compound 0.05 µM): 0.432
relative viability ([11]; first compound 0.1581 µM): 0.275
relative viability ([11]; first compound 0.5 µM): 0.132
relative viability ([12]; first compound 0.005 µM): 0.71
relative viability ([12]; first compound 0.01581 µM): 0.661
relative viability ([12]; first compound 0.05 µM): 0.647
relative viability ([12]; first compound 0.1581 µM): 0.486
relative viability ([12]; first compound 0.5 µM): 0.474
relative viability ([13]; first compound 0.005 µM): 1.1
relative viability ([13]; first compound 0.01581 µM): 0.979
relative viability ([13]; first compound 0.05 µM): 0.842
relative viability ([13]; first compound 0.1581 µM): 0.54
relative viability ([13]; first compound 0.5 µM): 0.388
relative viability ([14]; first compound 0.005 µM): 0.936
relative viability ([14]; first compound 0.01581 µM): 0.873
relative viability ([14]; first compound 0.05 µM): 0.858
relative viability ([14]; first compound 0.1581 µM): 0.31
relative viability ([14]; first compound 0.5 µM): 0.271
relative viability ([15]; first compound 0.005 µM): 0.954
relative viability ([15]; first compound 0.01581 µM): 0.918
relative viability ([15]; first compound 0.05 µM): 0.922
relative viability ([15]; first compound 0.1581 µM): 0.476
relative viability ([15]; first compound 0.5 µM): 0.39
relative viability ([16]; first compound 0.005 µM): 0.851
relative viability ([16]; first compound 0.01581 µM): 0.79
relative viability ([16]; first compound 0.05 µM): 0.677
relative viability ([16]; first compound 0.1581 µM): 0.442
relative viability ([16]; first compound 0.5 µM): 0.223
relative viability ([17]; first compound 0.005 µM): 0.771
relative viability ([17]; first compound 0.01581 µM): 0.787
relative viability ([17]; first compound 0.05 µM): 0.757
relative viability ([17]; first compound 0.1581 µM): 0.474
relative viability ([17]; first compound 0.5 µM): 0.458
relative viability ([18]; first compound 0.005 µM): 0.909
relative viability ([18]; first compound 0.01581 µM): 0.654
relative viability ([18]; first compound 0.05 µM): 0.342
relative viability ([18]; first compound 0.1581 µM): 0.181
relative viability ([18]; first compound 0.5 µM): 0.196
relative viability ([19]; first compound 0.005 µM): 0.781
relative viability ([19]; first compound 0.01581 µM): 0.666
relative viability ([19]; first compound 0.05 µM): 0.257
relative viability ([19]; first compound 0.1581 µM): 0.124
relative viability ([19]; first compound 0.5 µM): 0.0827
relative viability ([20]; first compound 0.005 µM): 0.97
relative viability ([20]; first compound 0.01581 µM): 1.08
relative viability ([20]; first compound 0.05 µM): 0.973
relative viability ([20]; first compound 0.1581 µM): 0.764
relative viability ([20]; first compound 0.5 µM): 0.356
